Values quoted from earlier work in US6683056B2, “O-aryl glucoside SGLT2 inhibitors and method” (Bristol-Myers Squibb Company, priority 2000, dated 2004).

Assays:
[1] = molecular target: T1, SGLT1 (Homo sapiens, UniProt P13866)
T1 sequence (P13866 1-664): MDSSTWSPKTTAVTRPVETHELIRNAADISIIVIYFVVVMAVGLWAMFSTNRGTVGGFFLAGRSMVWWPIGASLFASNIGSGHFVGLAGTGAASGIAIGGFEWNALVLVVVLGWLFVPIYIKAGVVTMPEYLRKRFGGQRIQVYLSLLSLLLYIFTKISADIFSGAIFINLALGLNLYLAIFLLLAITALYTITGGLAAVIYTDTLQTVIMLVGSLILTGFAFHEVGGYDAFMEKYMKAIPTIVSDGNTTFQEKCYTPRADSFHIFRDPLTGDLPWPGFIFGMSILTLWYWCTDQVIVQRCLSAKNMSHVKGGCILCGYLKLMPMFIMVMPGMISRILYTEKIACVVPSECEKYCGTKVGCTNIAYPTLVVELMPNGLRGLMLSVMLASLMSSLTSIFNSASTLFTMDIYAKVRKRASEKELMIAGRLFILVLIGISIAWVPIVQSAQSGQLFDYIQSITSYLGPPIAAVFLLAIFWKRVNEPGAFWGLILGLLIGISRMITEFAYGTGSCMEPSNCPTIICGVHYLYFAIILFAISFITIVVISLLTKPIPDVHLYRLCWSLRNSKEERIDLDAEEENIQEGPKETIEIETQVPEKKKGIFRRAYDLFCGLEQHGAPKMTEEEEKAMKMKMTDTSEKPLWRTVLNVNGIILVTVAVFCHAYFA

[2] = molecular target: T2, SGLT2 (Homo sapiens, UniProt P31639); settings: read-out: Km values for uptake
T2 sequence (P31639 1-672): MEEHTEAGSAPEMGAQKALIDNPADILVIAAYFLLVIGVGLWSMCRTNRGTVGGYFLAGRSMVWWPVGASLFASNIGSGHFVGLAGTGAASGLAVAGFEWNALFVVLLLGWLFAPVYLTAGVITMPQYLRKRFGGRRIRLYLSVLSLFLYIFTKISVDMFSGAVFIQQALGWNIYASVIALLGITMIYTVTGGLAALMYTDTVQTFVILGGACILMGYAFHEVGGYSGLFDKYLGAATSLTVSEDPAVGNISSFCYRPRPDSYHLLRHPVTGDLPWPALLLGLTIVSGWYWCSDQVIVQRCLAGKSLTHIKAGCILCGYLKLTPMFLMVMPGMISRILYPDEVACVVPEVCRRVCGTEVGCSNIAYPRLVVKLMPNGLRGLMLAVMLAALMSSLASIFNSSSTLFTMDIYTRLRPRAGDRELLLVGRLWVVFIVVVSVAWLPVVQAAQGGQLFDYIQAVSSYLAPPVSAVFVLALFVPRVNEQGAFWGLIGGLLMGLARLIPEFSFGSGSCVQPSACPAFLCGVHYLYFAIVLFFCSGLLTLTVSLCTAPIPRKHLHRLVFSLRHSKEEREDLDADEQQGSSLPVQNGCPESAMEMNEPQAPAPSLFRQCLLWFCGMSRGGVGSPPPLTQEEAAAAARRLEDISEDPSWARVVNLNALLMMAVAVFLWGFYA

[3] = tested on: facilitative glucose transporters (GLUTs)
[4] = tested on: several diabetic rodent models and one canine diabetes model
[5] = tested on: normal animals; settings: despite the presence of glycosuria
[6] = oral

In the case of `CO[C@H]1O[C@H](CO)[C@@H](O)[C@H](O)[C@H]1O` [AMG, α-methyl-D-glucopyranoside], the Km ([1]; SGLT1, read-out: Km values for uptake) is given as 400 µM and the Km [2] is given as 1600 µM.

For `O=C[C@H](O)[C@@H](O)[C@@H](O)[C@H](O)CO` [galactose], the substrate specificity ([1]; SGLT1 versus SGLT2) is listed as “substrate for SGLT1 only”.

In the case of `O=C(CCc1ccc(O)cc1)c1c(O)cc(O)cc1O` [phloretin], the “inhibition of facilitated glucose transport” value [3] is given as “potent inhibitor of facilitated glucose transport”.

In the case of `O=C(CCc1ccc(O)cc1)c1c(O)cc(O)cc1O[C@@H]1O[C@H](CO)[C@@H](O)[C@H](O)[C@H]1O` [phlorizin], the “in vivo effect on glucose excretion and plasma glucose” value ([4]; diabetic rodent models and one canine diabetes model) is given as “promoting glucose excretion, lowering fasting and fed plasma glucose, and promoting glucose utilization without hypoglycemic side effects”, the “adverse effects of treatment” value ([4]; treatment for as long as two weeks) is given as “No adverse effects on plasma ion balance, renal function or renal morphology” and the “hypoglycemic or other adverse effects” value [5] is given as “no hypoglycemic or other adverse effects”. The “stability in the gut” value [6] was “hydrolyzed in the gut to its aglycone phloretin”.
